{"source": "patent US20180171411A1", "about": "“GFRalpha1 AS A BIOMARKER FOR CISPLATIN-INDUCED CHEMORESISTANCE AND METASTASIS” (THE BOARD OF REGENTS OF THE UNIVERSITY OF TEXAS SYSTEM, priority 2015, published 2018)", "key": {"[1]": {"system": "GFRα1-overexpressing MG-63 cells", "assay": "WST-1 cell viability of GFRα1-overexpressing osteosarcoma cells", "format": "cell-based, human", "procedure": "FIG. 3. GFRα1-induced autophagy enhances the chemoresistance of osteosarcoma cells induced by cisplatin. (a) Control and GFRα1-deficient MG-63 cells were transiently transfected with a mRFP-GFP tandem fluorescent-tagged LC3 (mRFP-GFP-LC3) vector and then treated with cisplatin (20μM) for 24 hr. Left, representative images of RFP-LC3 and GFP-LC3 puncta. Scale bar, 20 μm. Right, quantitative analysis of the number of yellow puncta and the number of RFP-LC3 puncta in the combined images. The values are represented as a mean±s.d.m. (n=3). ** denotes p<0.05 by t-test. (b) Control and GFRα1-deficient MG-63 cells were treated with cisplatin (20 μM) for 24 hr and then stained with acridine orange. Top, representative images of cells stained with acridine orange. Scale bar, 20 μm. Bottom, quantitative analysis of the number of AVOs. The values are represented as a mean±s.d.m. (n=3). ** denotes p<0.05 by t-test. (c) Control and GFRα1-deficient MG-63 cells were treated with cisplatin (20 μM) for 24 hr and then analyzed by TEM. Top, representative images of autophagic vacuoles (yellow arrows) detected after cisplatin treatment in control MG-63 cells. Scale bar, 100 nm. Bottom, quantitative analysis of the number of autophagic vacuoles. The values are represented as a mean±s.d.m. (n=3). ** denotes p<0.05 by t-test. (d) Immunoblot analysis of control and GFRα1-overexpressing osteosarcoma cell lysates with antibodies specific for GFRα1, LC3 and β-actin. […] (e) Quantitative analysis of the number of yellow puncta and the number of RFP-LC3 puncta in control and GFRα1-overexpressing MG-63 cells. […] Bottom, quantitative analysis of the number of AVOs. […] (h) Control and GFRα1-overexpressing MG-63 cells were treated with cisplatin (20 μM) for 24 hr and then analyzed by TEM. Top, representative images of autophagic vacuoles detected after cisplatin treatment in control and GFRα1-overexpressing MG-63 cells. […] Bottom, quantitative analysis of the number of autophagic vacuoles. […] Cell viability was measured using the WST-1 assay. […] Cell viability was measured using the WST-1 assay. […]"}, "[2]": {"system": "GDNF mRNA in MG-63 and U-2 OS cells", "assay": "PCR of GDNF mRNA expression after cisplatin", "format": "cell-based, human", "conditions": "10 and 20 μM of cisplatin, 24 h", "procedure": "FIG. 7. GFRα1-mediated chemoresistance of osteosarcoma cells is independent of GDNF. (a) Quantitative real-time PCR of GDNF mRNA expression after cisplatin treatment. MG-63 and U-2 OS cells were treated with different concentrations of cisplatin for 24 h. (b-d) Cell viability was measured using the WST-1 assay. The values are represented as a mean±s.d.m. (n=3). (b) MG-63 cells were treated with PBS or GDNF (50 ng/ml) for 24 h. (c) Control and GFRα1-overexpressing cells were cultured and treated with PBS or GDNF for 24 h. (d) Control and GFRα1-overexpressing cells were treated and cultured with PBS only, Cisplatin, or Cisplatin+GDNF (50 ng/ml) for 24 h, respectively. […] Representative images of RFP-LC3 and GFP-LC3 puncta. Scale bar, 20 μm. Control and GFRα1-overexpressing MG-63 cells were transiently transfected with an RFP-GFP tandem fluorescent-tagged LC3 (RFP-GFP-LC3) and then treated with PBS (top two panels) or cisplatin (20 μM; bottom two panes) for 24 h. […] (f) Quantitative analysis of the number of yellow puncta and the number of RFP-LC3 puncta in the combined images of Control and GFRα1-overexpressing MG-63 cells treated with GDNF. […]\nSemi-quantitative RT-PCR. […]"}}}
{"molecule": "Cn1cnc(N)c2ncnc1-2", "note": "[3-MA, 3-methyladenine]", "values": [{"measurement": "increase of cell proliferation in GFRα1 overexpressing cells", "setting": "[1]; with DMSO, 3-MA or Baf, then cisplatin 20 μM 24 hr", "value": "blocked"}]}
{"molecule": "N.N.[Cl][Pt][Cl]", "note": "[cisplatin, Cis-Diamineplatinum(II) dichloride]", "values": [{"measurement": "GDNF mRNA expression", "setting": "[2]", "value": "increase"}]}
{"molecule": "GDNF: glial cell line-derived neurotrophic factor, the major ligand of GFRα1 (protein, UniProt P39905 78-211, looked up) Glial cell line-derived …: SPDKQMAVLPRRERNRQAAAANPENSRGKGRRGQRGKNRGCVLTAIHLNVTDLGLGYETKEELIFRYCSGSCDAAETTYDKILKNLSRNRRLVSDKVGQACCRPIAFDDDLSFLDDNLVYHILRKHSAKRCGCI", "values": [{"measurement": "GFRα1-mediated cell survival after cisplatin treatment", "setting": "[1]; Cisplatin+GDNF (50 ng/ml), 24 h", "value": "did not have an effect"}]}
